Laboratory results as given in patent publication US6472348B1, “Pyridone derivatives and herbicides” (Kumiai Chemical Industry Co., Ltd., priority 1996, dated 2002).

Assays:
Format in all cases: in vivo
[1] = tested on: common lambsquarters (Ch); test: Test Example 5: crop plant selectivity by upland field soil treatment (wheat), herbicidal effects; set-up: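 grade of growth control; 5 = at least 90%; 4 = 70 to 90%; 3 = 50 to 70%; 2 = 30 to 50%; 1 = 10 to 30%; 0 = under 10%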; settings: dose 6.3 g ai/10a, 21st day after application
Outline: (§1)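 Pre-emergence soil treatment, sand-filled pots, seeds covered with soil; greenhouse culture; visual scoring of weed control and wheat injury at day 21 post-application.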

[2] = tested on: slender amaranth (Am); test: as above; set-up: scale not given here; settings: dose 6.3 g ai/10a, 21st day after application
Outline: as §1

[3] = tested on: pale smartweed (Po); test: as above; set-up: scale not given here; settings: dose 6.3 g ai/10a, 21st day after application
Outline: as §1

[4] = tested on: China jute (Ab); test: as above; set-up: scale not given here; settings: dose 6.3 g ai/10a, 21st day after application
Outline: as §1

[5] = tested on: green foxtail (Se); test: as above; set-up: scale not given here; settings: dose 6.3 g ai/10a, 21st day after application
Outline: as §1

[6] = tested on: common lambsquarters (Ch); test: Test Example 7: crop plant selectivity by upland field soil treatment (corn), herbicidal effects; set-up: scale not given here; settings: dose 6.3 g ai/10a, 21st day after application
Method: (§2) (Test on Crop Plant Selectivity by Upland Field Soil Treatment)
(§3) In a plastic pot (surface area: 600 cm^2) filled with sand, corn (Ze), green foxtail (Se), pale smartweed (Po), slender amaranth (Am), common lambsquarters (Ch) and China jute (Ab) were sown and covered with soil. […] The plants were then cultured in a green house, and the evaluation of the herbicidal effects and phytotoxicity was conducted on the 21st day after the application in accordance with the standards as identified in Table 47.

[7] = tested on: slender amaranth (Am); test: as above; set-up: scale not given here; settings: dose 6.3 g ai/10a, 21st day after application
Method: as §2, §3

[8] = tested on: pale smartweed (Po); test: as above; set-up: scale not given here; settings: dose 6.3 g ai/10a, 21st day after application
Method: as §2, §3

[9] = tested on: China jute (Ab); test: as above; set-up: scale not given here; settings: dose 6.3 g ai/10a, 21st day after application
Method: as §2, §3

[10] = tested on: green foxtail (Se); test: as above; set-up: scale not given here; settings: dose 6.3 g ai/10a, 21st day after application
Method: as §2, §3

[11] = tested on: soybean (Gl); test: Test Example 6: crop plant selectivity by upland field soil treatment (soybean), phytotoxicity; set-up: scale not given here; settings: dose 6.3 g ai/10a, 21st day after application
Method: as §2
(§4) In a plastic pot (surface area: 600 cm^2) filled with sand, soybean (Gl), Diaitaria ciliaris (Di), green foxtail (Se), Johnsongrass (So), pale smartweed (Po), slender amaranth (Am), common lambsquarters (Ch) and China jute (Ab) were sown and covered with soil. […] The plants were then cultured in a green house, and the evaluation of the herbicidal effects and phytotoxicity was conducted on the 21st day after the application in accordance with the standards as identified in Table 47. Symbol—represents “not tested”.

[12] = tested on: cotton (Go); test: Test Example 4: crop plant selectivity by upland field soil treatment (cotton), phytotoxicity; set-up: scale not given here; settings: dose 6.3 g ai/10 a, evaluated 21st day after application
Outline: (§5)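 Upland soil treatment: crop and weed seeds in sand pots under a soil cover, compound applied to soil, greenhouse-grown, rated visually 21 d later.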

[13] = tested on: monochoria (Mo); test: Test Example 1: herbicidal effects by paddy field soil treatment; settings: 100 g of the active ingredient per 10 ares, 21st day after the application, index 0-5 of Table 47;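 also: grade of growth control; 5 = at least 90%; 4 = 70 to 90%; 3 = 50 to 70%; 2 = 30 to 50%; 1 = 10 to 30%; 0 = under 10%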
Outline: (§6)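 Greenhouse pot test in flooded paddy soil, dosed at 100 g a.i. per 10 ares; effect scored on day 21.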

[14] = tested on: bulrush (Sc); test: as above; settings: 100 g of the active ingredient per 10 ares, 21st day after the application, index 0-5 of Table 47;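 also: grade of growth control; 5 = at least 90%; 4 = 70 to 90%; 3 = 50 to 70%; 2 = 30 to 50%; 1 = 10 to 30%; 0 = under 10%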
Outline: as §6

[15] = tested on: barnyardgrass (Ec); test: as above; settings: 100 g of the active ingredient per 10 ares, 21st day after the application, index 0-5 of Table 47
Outline: as §6

[16] = tested on: common lambsquarters (Ch); test: Test Example 2: herbicidal effects by upland field soil treatment; settings: 100 g of the active ingredient per 10 ares, evaluated on the 21st day after application;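 also: grade of growth control; 5 = at least 90%; 4 = 70 to 90%; 3 = 50 to 70%; 2 = 30 to 50%; 1 = 10 to 30%; 0 = under 10%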
Excerpt: (§7) (Test on Herbicidal Effects by Upland Field Soil Treatment)

[17] = tested on: Digitaria ciliaris (Di); test: as above; settings: 100 g of the active ingredient per 10 ares, evaluated on the 21st day after application;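 also: grade of growth control; 5 = at least 90%; 4 = 70 to 90%; 3 = 50 to 70%; 2 = 30 to 50%; 1 = 10 to 30%; 0 = under 10%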
Excerpt: as §7

[18] = tested on: slender amaranth (Am); test: as above; settings: 100 g of the active ingredient per 10 ares, evaluated on the 21st day after application
Excerpt: as §7

[19] = tested on: pale smartweed (Po); test: as above; settings: 100 g of the active ingredient per 10 ares, evaluated on the 21st day after application
Excerpt: as §7

[20] = tested on: barnyardgrass (Ec); test: as above; settings: 100 g of the active ingredient per 10 ares, evaluated on the 21st day after application
Excerpt: as §7

[21] = tested on: rice flatsedge (Ci); test: as above; settings: 100 g of the active ingredient per 10 ares, evaluated on the 21st day after application
Excerpt: as §7

[22] = tested on: common lambsquarters (Ch); test: Test Example 6: crop plant selectivity by upland field soil treatment (soybean), herbicidal effects; set-up: scale not given here; settings: dose 6.3 g ai/10a, 21st day after application
Method: as §2, §4

[23] = tested on: slender amaranth (Am); test: as above; set-up: scale not given here; settings: dose 6.3 g ai/10a, 21st day after application
Method: as §2, §4

[24] = tested on: pale smartweed (Po); test: as above; set-up: scale not given here; settings: dose 6.3 g ai/10a, 21st day after application
Method: as §2, §4

[25] = tested on: China jute (Ab); test: as above; set-up: scale not given here; settings: dose 6.3 g ai/10a, 21st day after application
Method: as §2, §4

[26] = tested on: green foxtail (Se); test: as above; set-up: scale not given here; settings: dose 6.3 g ai/10a, 21st day after application
Method: as §2, §4

[27] = tested on: common lambsquarters (Ch); test: Test Example 4: crop plant selectivity by upland field soil treatment (cotton), herbicidal effects; set-up: scale not given here; settings: dose 6.3 g ai/10 a, evaluated 21st day after application
Outline: as §5

[28] = tested on: slender amaranth (Am); test: as above; set-up: scale not given here; settings: dose 6.3 g ai/10 a, evaluated 21st day after application
Outline: as §5

[29] = tested on: pale smartweed (Po); test: as above; set-up: scale not given here; settings: dose 6.3 g ai/10 a, evaluated 21st day after application
Outline: as §5

[30] = tested on: China jute (Ab); test: as above; set-up: scale not given here; settings: dose 6.3 g ai/10 a, evaluated 21st day after application
Outline: as §5

[31] = tested on: green foxtail (Se); test: as above; set-up: scale not given here; settings: dose 6.3 g ai/10 a, evaluated 21st day after application
Outline: as §5

[32] = tested on: corn (Ze); test: Test Example 7: crop plant selectivity by upland field soil treatment (corn), phytotoxicity; set-up: scale not given here; settings: dose 6.3 g ai/10a, 21st day after application
Method: as §2, §3

[33] = tested on: wheat (Tr); test: Test Example 5: crop plant selectivity by upland field soil treatment (wheat), phytotoxicity; set-up: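 grade of crop injury; 5 = at least 90%; 4 = 70 to 90%; 3 = 50 to 70%; 2 = 30 to 50%; 1 = 10 to 30%; 0 = under 10%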; settings: dose 6.3 g ai/10a, 21st day after application
Outline: as §1

[34] = tested on: common lambsquarters (Ch); test: Test Example 3: herbicidal effects by upland field foliage treatment; set-up: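 grade of growth control; 5 = at least 90%; 4 = 70 to 90%; 3 = 50 to 70%; 2 = 30 to 50%; 1 = 10 to 30%; 0 = under 10%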; settings: 100 g active ingredient per 10 ares, evaluated 14th day after treatment
Outline: (§8)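 Post-emergence upland foliage test. Seedlings grown 2 weeks under glass in pots (120 cm^2) of sand, seed topped with soil; treated on the foliage, kept in greenhouse, then assessed at day 14 using rating standards.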

[35] = tested on: slender amaranth (Am); test: as above; set-up: scale not given here; settings: 100 g active ingredient per 10 ares, evaluated 14th day after treatment
Outline: as §8

[36] = tested on: pale smartweed (Po); test: as above; set-up: scale not given here; settings: 100 g active ingredient per 10 ares, evaluated 14th day after treatment
Outline: as §8

[37] = tested on: barnyardgrass (Ec); test: as above; set-up: scale not given here; settings: 100 g active ingredient per 10 ares, evaluated 14th day after treatment
Outline: as §8

[38] = tested on: rice flatsedge (Ci); test: as above; set-up: scale not given here; settings: 100 g active ingredient per 10 ares, evaluated 14th day after treatment
Outline: as §8

[39] = tested on: Diaitaria ciliaris (Di); test: as above; set-up: scale not given here; settings: 100 g active ingredient per 10 ares, evaluated 14th day after treatment
Outline: as §8

SMILES | Herbicidal effects Ch [1] | Herbicidal effects Am [2] | Herbicidal effects Po [3] | Herbicidal effects Ab [4] | Herbicidal effects Se [5] | Herbicidal effects Ch [6] | Herbicidal effects Am [7] | Herbicidal effects Po [8] | Herbicidal effects Ab [9] | Herbicidal effects Se [10] | Phytotoxicity Gl [11] | Phytotoxicity Go [12] | Herbicidal effects Mo [13] | Herbicidal effects Sc [14] | Herbicidal effects Ec [15] | Herbicidal effects Ch [16] | Herbicidal effects Di [17] | Herbicidal effects Am [18] | Herbicidal effects Po [19] | Herbicidal effects Ec [20] | also measured
COc1cc(Cl)cc(F)c1-c1ccc(C(F)(F)F)n(C)c1=O [1′-1] | 5 | 5 | 5 | 5 | 5 | 5 | 5 | 5 | 5 | 5 | 1 | 0 | 5 | 5 | 5 | 5 | 5 | 5 | 5 | 5 | Herbicidal effects Ci [21]: 5; Herbicidal effects Ch [22]: 5; Herbicidal effects Am [23]: 5; Herbicidal effects Po [24]: 5; Herbicidal effects Ab [25]: 5; Herbicidal effects Se [26]: 5; Herbicidal effects Ch [27]: 5; Herbicidal effects Am [28]: 5; Herbicidal effects Po [29]: 5; Herbicidal effects Ab [30]: 5; Herbicidal effects Se [31]: 5; Phytotoxicity Ze [32]: 1; Phytotoxicity Tr [33]: 1; Herbicidal effects Ch [34]: 5; Herbicidal effects Am [35]: 5; Herbicidal effects Po [36]: 5; Herbicidal effects Ec [37]: 5; Herbicidal effects Ci [38]: 5; Herbicidal effects Di [39]: 5
C#CCOc1cc(Cl)cc(F)c1-c1ccc(C(F)(F)F)n(C)c1=O [1′-4] | 5 | 5 | 5 | 5 | 5 | 5 | 5 | 5 | 5 | 5 | 1 | 0 | 5 | 5 | 5 | 5 | 5 | 5 | 5 | 5 | Herbicidal effects Ci [21]: 5; Herbicidal effects Ch [22]: 5; Herbicidal effects Am [23]: 5; Herbicidal effects Po [24]: 5; Herbicidal effects Ab [25]: 5; Herbicidal effects Se [26]: 5; Herbicidal effects Ch [27]: 5; Herbicidal effects Am [28]: 5; Herbicidal effects Po [29]: 5; Herbicidal effects Ab [30]: 5; Herbicidal effects Se [31]: 5; Phytotoxicity Ze [32]: 1; Phytotoxicity Tr [33]: 1; Herbicidal effects Ch [34]: 5; Herbicidal effects Am [35]: 5; Herbicidal effects Po [36]: 5; Herbicidal effects Ec [37]: 5; Herbicidal effects Ci [38]: 5; Herbicidal effects Di [39]: 5
CCCON=Cc1cc(-c2ccc(C(F)(F)F)n(C)c2=O)c(F)cc1Cl [Compound 1-188] | 5 | 5 | 5 | 5 | 5 | 5 | 5 | 5 | 5 | 5 | 1 | 0 | 5 | 5 | 5 | 5 | 5 | 5 | 5 | 5 | Herbicidal effects Ci [21]: 5; Herbicidal effects Ch [22]: 5; Herbicidal effects Am [23]: 5; Herbicidal effects Po [24]: 5; Herbicidal effects Ab [25]: 5; Herbicidal effects Se [26]: 5; Herbicidal effects Ch [27]: 5; Herbicidal effects Am [28]: 5; Herbicidal effects Po [29]: 5; Herbicidal effects Ab [30]: 5; Herbicidal effects Se [31]: 5; Phytotoxicity Ze [32]: 0; Phytotoxicity Tr [33]: 1; Herbicidal effects Ch [34]: 5; Herbicidal effects Am [35]: 5; Herbicidal effects Po [36]: 5; Herbicidal effects Ec [37]: 5; Herbicidal effects Ci [38]: 5; Herbicidal effects Di [39]: 5
